Measurements: patent US12337010B2, “Compositions and methods of treatment using nicotinamide mononucleotide” (Washington University, priority 2017, dated 2025)

Legend:
Slc12a8 mRNA expression = Slc12a8 mRNA expression by quantitative RT-PCR in cells and ex vivo small intestine explants; format: cell-based, mouse; conditions: FK866 plus NMN; primary hepatocytes, NIH3T3 fibroblasts (24 h), jejunum and ileum explants (4 h)
Procedure: Cell culture and ex vivo small intestine explant culture. […] For Slc12a8 mRNA expression analysis, 2.5×10^5 cells per well were incubated in 6-well plates with DMEM with 1% FBS containing 0.1% DMSO or 100 nM FK866 or 100 nM FK866 plus 100 μM NMN for 24 h. Small intestines from 3-month old B6 male mice were cut into three segments with duodenum/jejunum/ileum length ratios of 1:3:2 (Wang, H. H., et al., Hepatology 45, 998-1006, 2007). […] Cellular and tissue RNA samples were analyzed by quantitative RT-PCR, as described previously (Stein, L. R. & Imai, S., EMBO J., 33, 1321-1340, 2014).
The amounts of adenosine produced were determined by HPLC. […] Silencing efficiencies were evaluated by quantitative RT-PCR.
FIG. 2 illustrates that Slc12a8 is highly expressed in the small intestine and pancreas and moderately in the liver and white adipose tissue of B6 male mice at 3 months of age (n=3 mice). […] Cells were treated with these compounds for 24 h (n=4 mice for hepatocytes treated with DMSO and FK866, and n=3 mice for hepatocytes treated with FK866 and NMN; n=6 for NIH3T3 cells; analyzed using ANOVA with Tukey's test). FIG. 5 illustrates surface and intracellular Slc12a8 protein expression levels were measured by flow cytometry analysis in NIH3T3 cells treated with FK866 or FK866 plus NMN for 48h. […]

[1] = tested on: various types of primary cells; conditions: NMN co-administered with FK866, compared to NMN in the absence of FK866; cited from earlier work
[2] = Jejunum NAD+ levels 60 min after oral gavage of NMN; format: in vivo, mouse; conditions: 60 min after oral gavage (500 mg/kg), Slc12a8-knockdown mice compared to control mice
Excerpt: In vivo Slc12a8 knockdown experiment. To generate shRNA-expressing lentiviral constructs, 56-bp double-stranded oligonucleotides, each of which contains a sense target sequence, a microRNA-based loop sequence ([…]; SEQ ID NO: 4), an antisense sequence, a termination sequence of four thymidines, and appropriate restriction enzyme sites at both ends, were generated for mouse Slc12a8 and firefly luciferase (fLuc) and cloned into the U6-PGK-GFP vector provided by the Viral Vectors Core at Washington University School of Medicine. The sense Slc12a8 sequence is ‘5-[…]-3’ (SEQ ID NO: 5). Lentiviruses were produced as previously described (Satoh, A. et al., Cell Metab., 18, 416-430, 2013). Knockdown efficiency was tested using primary intestinal cultures (Sato, T. & Clevers, H., Methods Mol. Biol. 945, 319-328, 2013). Large-scale lentivirus production was carried on by the Viral Vectors Core at the Hope Center for Neurological Disorders at Washington University. […]
Lentiviruses carrying control firefly luciferase (fLuc) shRNA and Slc12a8 shRNA were generated as described supra. […] Slc12a8 protein expression levels in control shfLuc lentivirus- and shSlc12a8 lentivirus-infected jejunum and ileum samples were measured through Western blots (FIG. 17). […] Then NAD+ levels were measured by HPLC in these samples (analyzed by ANOVA with Tukey's test).

NC(=O)c1ccc[n+]([C@@H]2O[C@H](COP(=O)([O-])O)[C@@H](O)[C@H]2O)c1 [NMN, nicotinamide mononucleotide]
Slc12a8 expression induced by FK866 (Slc12a8 mRNA expression): suppressed
NAD+ increase [1]: higher NAD+ increases
NAD+ levels in the jejunum [2]: significantly decreased
